Experimental data from PMC3392958, “Assay Format as a Critical Success Factor for Identification of Novel Inhibitor Chemotypes of Tissue-Nonspecific Alkaline Phosphatase from High-Throughput Screening” (Molecules, 2010).
Like-named read-outs stand apart in the source and are kept apart here. One block for each compound: values may come before it.

Legend:
IAP [1] = target: T1, IAP (Homo sapiens, UniProt P09923); assay: IAP colorimetric assay (pNPP); assay type: biochemical; settings: unit not given in Table 8; n=7; read-out: IAP-Color
T1 construct: made in house; host or cells: COS-1 cells, transient expression; dialyzed serum-free conditioned medium
T1 sequence (P09923 20-503 limits assumed): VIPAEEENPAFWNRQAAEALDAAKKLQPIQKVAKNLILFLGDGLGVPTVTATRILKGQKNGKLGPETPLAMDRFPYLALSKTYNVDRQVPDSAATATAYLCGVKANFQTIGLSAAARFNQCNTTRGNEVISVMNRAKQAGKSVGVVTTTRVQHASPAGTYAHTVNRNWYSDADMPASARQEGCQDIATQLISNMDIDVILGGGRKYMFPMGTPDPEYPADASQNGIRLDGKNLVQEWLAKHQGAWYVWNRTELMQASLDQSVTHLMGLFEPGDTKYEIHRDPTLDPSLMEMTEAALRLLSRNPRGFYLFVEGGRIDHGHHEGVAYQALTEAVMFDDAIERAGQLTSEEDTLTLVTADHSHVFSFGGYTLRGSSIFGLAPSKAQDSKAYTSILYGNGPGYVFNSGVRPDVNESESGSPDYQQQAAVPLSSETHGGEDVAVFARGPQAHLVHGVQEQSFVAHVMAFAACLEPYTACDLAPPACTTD
Description: (§1) An additional sub-micromolar IAP assay using p-nitrophenol phosphate (pNPP) as substrate was developed at the CPCCG and was utilized for hit confirmation. Lead compounds were tested in a panel of assays consisting of: (1) TNAP luminescent assay (substrate: CDP-star); (2) TNAP colorimetric assay (substrate: pNPP); (3) PLAP luminescent assay (substrate: CDP-star); (4) IAP luminescent assay (substrate: CDP-star); (5) IAP colorimetric assay (substrate: pNPP); (6) solubility and (7) glyceraldehyde-3-phosphate dehydrogenase (GAPDH) assay. The latter two assays are designed to identify compounds that are likely to interfere with the assay components and would appear as non-specific inhibitors. Our approach to exploring the SAR for the IAP inhibitor series is shown graphically in Figure 8.

[2] = design: method as in PubChem; settings: assays deposited in PubChem; ref PubChem; cited from earlier work
TNAP [3] = target: T2, TNAP (Homo sapiens, UniProt P05186); assay: TNAP colorimetric assay (pNPP substrate, OD405, 1M DEA); assay type: biochemical; settings: unit not given in Table 8; n=6; read-out: TNAP-Color
T2 construct: made in house; host or cells: COS-1 cells, transient expression; dialyzed serum-free conditioned medium
T2 sequence (P05186 18-501 limits assumed): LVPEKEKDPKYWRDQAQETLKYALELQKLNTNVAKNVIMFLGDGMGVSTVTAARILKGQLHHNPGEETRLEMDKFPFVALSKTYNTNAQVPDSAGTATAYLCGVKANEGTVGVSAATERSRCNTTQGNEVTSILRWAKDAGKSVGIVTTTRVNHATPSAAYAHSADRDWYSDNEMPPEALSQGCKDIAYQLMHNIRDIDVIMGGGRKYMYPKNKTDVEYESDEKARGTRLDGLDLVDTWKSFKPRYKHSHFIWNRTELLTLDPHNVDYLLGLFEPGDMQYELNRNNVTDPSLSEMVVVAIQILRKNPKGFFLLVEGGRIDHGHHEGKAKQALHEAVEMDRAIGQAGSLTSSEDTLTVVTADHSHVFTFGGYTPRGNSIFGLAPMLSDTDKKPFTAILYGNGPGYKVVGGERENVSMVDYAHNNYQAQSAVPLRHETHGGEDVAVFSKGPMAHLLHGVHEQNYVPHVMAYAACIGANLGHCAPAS
Description: The colorimetric TNAP assay was performed as previously described with slight modifications.

human PLAP = target: T3, human PLAP (Homo sapiens, UniProt P05187); assay: PLAP luminescent assay (CDP-star); assay type: biochemical
T3 construct: made in house; host or cells: COS-1 cells, transient expression; dialyzed serum-free conditioned medium
Description: (§2) Selectivity of Primary Actives Against other Phosphatases: To assess the selectivity of compounds across the alkaline phosphatase family, luminescent assays were developed for human PLAP and human IAP with the same CDP-Star reagent.
(§3) Development of the novel luminescent TNAP assay using CDP-star substrate and detailed protocol of its application for HTS is described in more detail elsewhere. […] Briefly, the assay was 50 μM CDP-star substrate in assay buffer containing 100 mM DEA-HCl (pH 9.8), 1 mM MgCl2, and 20 μM ZnCl2. The luminescence signal was measured after a 30-min incubation at room temperature on an EnVision plate reader (PerkinElmer, Waltham, MA). […] Detailed protocols can be found in the respective AIDs, however, the final buffer conditions were 100 mM DEA, pH 9.8, 1.0 mM MgCl2, 0.02 mM ZnCl2 for both PLAP and IAP.

CYP2C19 = tested on: CYP2C19; design: method as in PubChem; settings: @ 5 µM; ref PubChem; cited from earlier work
GAPDH = GAPDH (Homo sapiens, UniProt P04406); assay: Glyceraldehyde-3-phosphate dehydrogenase (GAPDH) assay; assay type: biochemical
Description: as §1
The National Institutes of Health (NIH) Molecular Libraries Small Molecule Repository (MLSMR, http://www.mli.nih.gov/mlsmr) supplied the compound library. The MLSMR, funded by the NIH, is responsible for the selection of small molecules for HTS screening, their purchase and quality control (QC) analysis, library maintenance, and distribution within the NIH Molecular Libraries Screening Center Network (MLSCN, http://www.mli.nih.gov/mlscn). Both MLSMR and MLSCN are parts of the Molecular Libraries Initiatives (MLI, http://nihroadmap.nih.gov/molecularlibraries) under the NIH Roadmap Initiatives (www.nihroadmap.nih.gov). MLSMR compounds are acquired from commercial and in part from academic and government sources and are selected based on the following criteria: samples are available for resupply in 10-mg quantity, are at least 90% pure, have acceptable physicochemical properties, and contain no functional groups or moieties that are known to generate artifacts in HTS (http://mlsmr.glpg.com/). Compounds are selected to represent diversified chemical space with clusters of closely related analogs around them to aid in the HTS-based structure-activity relationship (SAR) analysis. […]

[4] = Solubility in aqueous solutions; assay type: physicochemical; settings: read-out: concentrations at which compound is soluble
Description: as §1
The National Institutes of Health (NIH) Molecular Libraries Small Molecule Repository (MLSMR, http://www.mli.nih.gov/mlsmr) supplied the compound library. […] MLSMR compounds are acquired from commercial and in part from academic and government sources and are selected based on the following criteria: samples are available for resupply in 10-mg quantity, are at least 90% pure, have acceptable physicochemical properties, and contain no functional groups or moieties that are known to generate artifacts in HTS (http://mlsmr.glpg.com/). […]

IAP [5] = target: T1, IAP; assay: IAP luminescent assay (CDP-star); assay type: biochemical
Description: as §2, §3

CYP2C9 = tested on: CYP2C9; design: method as in PubChem; settings: @ 5 µM; ref PubChem; cited from earlier work
TNAP [6] = target: T2, TNAP; assay: TNAP luminescent assay (CDP-star substrate, 100 mM DEA); assay type: biochemical
Description: as §3

TNAP [7] = target: T2, TNAP; design: method as in PMID 17638573; settings: existing inhibitors of TNAP; read-out: TNAP- Color Ki; cited from earlier work
[8] = Stability in rat liver microsomes (RLM); assay type: in vitro ADME; settings: 20-minute incubation
[9] = tested on: primary calvarial osteoblast cultures; assay: Calcification in primary calvarial osteoblast cultures; assay type: cell-based, mouse; settings: 30 µM, osteoblasts of WT mice cultured 19 days
Description: Figure 5 Suppression of calcification by CID-2931238 in primary calvarial osteoblast cultures. Osteoblasts from calvaria bones of WT mice were cultured for 19 days. Media supplemented with 50 µg/mL ascorbic acid and 10 mM β-glycerophosphate were renewed every second or third day (total seven medium changes). The concentration of each compound was maintained at 30 µM. RAU = relative absorbance units.

Sequence of GAPDH (P04406 whole entry, species assumed): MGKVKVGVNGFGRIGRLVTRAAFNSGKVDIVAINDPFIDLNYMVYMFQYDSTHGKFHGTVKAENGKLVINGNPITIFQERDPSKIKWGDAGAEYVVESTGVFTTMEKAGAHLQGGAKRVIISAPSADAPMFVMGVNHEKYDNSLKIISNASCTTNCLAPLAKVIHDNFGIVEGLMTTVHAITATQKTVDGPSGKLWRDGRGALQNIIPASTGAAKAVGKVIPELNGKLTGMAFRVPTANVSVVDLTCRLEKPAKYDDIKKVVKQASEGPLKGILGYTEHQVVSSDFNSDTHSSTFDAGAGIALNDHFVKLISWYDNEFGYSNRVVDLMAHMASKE
T3 sequence (P05187 23-506 limits assumed): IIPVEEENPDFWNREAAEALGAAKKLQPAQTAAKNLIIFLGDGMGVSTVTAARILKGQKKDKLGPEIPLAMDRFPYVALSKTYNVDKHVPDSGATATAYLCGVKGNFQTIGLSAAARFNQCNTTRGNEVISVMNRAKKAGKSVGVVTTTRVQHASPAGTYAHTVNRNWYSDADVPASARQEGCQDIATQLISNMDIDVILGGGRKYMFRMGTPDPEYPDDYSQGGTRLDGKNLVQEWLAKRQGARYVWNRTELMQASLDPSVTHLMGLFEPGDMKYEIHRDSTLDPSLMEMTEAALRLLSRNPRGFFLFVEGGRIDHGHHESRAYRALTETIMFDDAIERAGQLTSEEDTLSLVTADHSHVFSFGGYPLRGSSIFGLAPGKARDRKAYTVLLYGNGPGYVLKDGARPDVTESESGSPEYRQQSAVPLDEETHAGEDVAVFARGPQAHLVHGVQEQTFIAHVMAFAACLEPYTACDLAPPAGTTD

SMILES: O=C(c1ccccc1)C(Sc1nnc[nH]1)c1ccccc1 (stereo not shown) [MLS-5361418]
Ki (TNAP [7]): 5600 nM

SMILES: COc1ccc(OC)c(S(=O)(=O)Nc2cnc3ccccc3c2)c1 [MLS-0038949]
cytotoxicity [2]: no cytotoxicity
compound remaining in rat liver microsomes [8]: virtually all-of-the compound remained
inhibition of mineralization [9]: completely inhibited mineralization
inhibition of PLAP (human PLAP; at or below 100 µM): did not show any inhibition
IC50 (human PLAP; read-out: Selectivity Panel IC50 PLAP): > 100000 nM
effect on GAPDH activity (GAPDH): no effect
solubility [4]: < 25 µM
inhibition of IAP (IAP [5]; at or below 100 µM): did not show any inhibition
IC50 (IAP [5]; read-out: Selectivity Panel IC50 IAP): > 100000 nM

SMILES: Cn1cnnc1Sc1nc(Nc2ccccc2)nc(Nc2ccccc2)n1 [MLS-5804079]
Ki (TNAP [7]): 6500 nM

More lines, main results first:

IC50 (IAP [1]): 1380 nM
IC50 (TNAP [3]): > 100000 nM
IC50 (human PLAP; unit not given in Table 8, n=3, read-out: PLAP-Lumi): 4810 nM
effect on GAPDH activity (GAPDH): no effect
solubility [4]: < 25 µM
mode of IAP inhibition versus the CDP-star substrate (IAP [5]): non-competitive
potency relative to all other existing small-molecule inhibitors of IAP (IAP [5]): > 6,500 fold
selectivity for IAP over TNAP (IAP [5]): 7 fold
IC50 (IAP [5]; phtalimide triazole series, read-out: IC50 IAP-Lumi): 120 nM
IC50 (IAP [5]; unit not printed in Table 8 ([…]), n=7, read-out: IAP-Lumi): 122 nM
IC50 (TNAP [6]; phtalimide triazole series, read-out: IC50 TNAP- Lumi): 800 nM
IC50 (TNAP [6]; unit not given in Table 8, n=7, read-out: TNAP-Lumi): 795 nM
SMILES: O=C1C2CC=CCC2C(=O)N1c1nc(-c2ccccc2)n[nH]1 (stereo not shown) [CID-2946732]
cytotoxicity [2]: no cytotoxicity
2C19 (CYP2C19): 79.6% I @
2C9 (CYP2C9): 92.5% I @

inhibition of PLAP (human PLAP; at or below 10 µM): did not show any inhibition
inhibition of GAPDH (GAPDH; at or below 10 µM): did not show any inhibition
selectivity index against the closest counter-targets (PLAP, GAPDH) (TNAP [6]): > 2,000 fold
IC50 (TNAP [6]; TNAP, read-out: IC50 (Figure 6, pyrazole series optimization)): 5 nM
IC50 (TNAP [6]; read-out: TNAP IC50, luminescent assay): 5.19 nM
SMILES: O=C(NCCO)c1cc(-c2ccc(Cl)c(Cl)c2Cl)n[nH]1 [MLS-0146291]
